The values that follow come from patent EP2293808B1, “AN SYNTHETIC PEPTIDE CONTAINING BONE FORMING PEPTIDE 1(BFP 1) FOR STIMULATING OSTEOBLAST DIFFERENTIATION, AND PHARMACEUTICAL COMPOSITION COMPRISING THE SYNTHETIC PEPTIDE” (Industry Foundation Of Chonnam National University, priority 2008, dated 2012).

This data set relates to cells. Put plainly: MTT assay for cytotoxicity. In kind it is cell-based. Particulars: within a range of used concentrations, FIG. 3.

Ends that are not written are not given here.

Turning to “GQGFSYPYKAVFSTQ [BFP 1, Gly-Gln-Gly-Phe-Ser-Tyr-Pro-Tyr-Lys-Ala-Val-Phe-Ser-Thr-Gln]”, the cytotoxicity entry is “not toxic to cells”.
